The nature of the series: Static charge, Newtry static meter. The series is classed as physicochemical. The protocol:
Static charge measurements were performed using a Newtry static meter. The powders were accumulated onto a piece of weigh paper and the surface gently leveled. The static meter was held approximately 25 millimeters from the surface of the material to obtain a reading. Three replicate measurements were taken, and an average was calculated.

Setting [1] is: 10% RH exposure, at least five days.
Setting [2] is: 20% RH exposure, at least five days.
[3] abbreviates: 30% RH exposure, at least five days.
[4] abbreviates: 40% RH exposure, at least five days.
Where [5] appears, read: 50% RH exposure, at least five days.

Structures are written as SMILES.

As for `C[C@H]1[C@H](OC(=O)CCC(=O)O)O[C@@H]2O[C@@]3(C)CC[C@H]4[C@H](C)CC[C@@H]1[C@@]24OO3` [artesunate powder, 4-oxo-4-[[(1R,4S,5R,8S,9R,10S,12R,13R)-1,5,9-trimethyl-11,14,15,16-tetraoxatetracyclo[10.3.1.0^4,13.0^8,13]hexadecan-10-yl]oxy]butanoic acid], the “Average Static Reading” value is listed as 0.36 kV under setting [1]; 0.36 kV (11% RH); 0.13 kV under setting [2]; 0.13 kV (22% RH); −0.04 kV under setting [3]; 0.01 kV under setting [4]. In addition, the “Average Static Reading” value under setting [5] is listed as −0.05 kV. The “Static Reading 1” value under setting [1] is 0.40 kV; the “Static Reading 1” value under setting [2] was found to be 0.12 kV; the “Static Reading 1” value under setting [3] is listed as −0.04 kV; the “Static Reading 1” value under setting [4] is given as 0.02 kV; the “Static Reading 1” value under setting [5] is listed as −0.05 kV. The “Static Reading 2” value is recorded as 0.38 kV under setting [1]; 0.13 kV under setting [2]; −0.04 kV under setting [3]; 0.01 kV under setting [4]; −0.05 kV under setting [5]. Moreover, the “Static Reading 3” value is, setting by setting: under setting [1], 0.30 kV; under setting [2], 0.13 kV; under setting [3], −0.04 kV; under setting [4], 0.00 kV; under setting [5], −0.05 kV.

The record behind these values is patent US20250339400A1, “ARTESUNATE POWDERS, PHARMACEUTICAL COMPOSITIONS AND METHODS OF MANUFACTURE” (AMIVAS, INC., priority 2024, published 2025).
